According to US20250161238A1, “NMDAR Antagonists Prevent Ageing and Aging-Associated Conditions and Diseases Through Increasing 20S Proteasome Activity” (priority 2022, published 2025):
Structures can show the parent of a compound that is named as a salt. Where two headings read alike, the source gives them in different places. Peptide text beside a SMILES is read from it. * marks the point of attachment. Cbz = O=C(OCc1ccccc1)*

Columns and labels:
[1] = test system: mice with GD symptoms; settings: A/J, C3H/HeJ, DBA/2J, C57BL6/JolaHsd, CBE 25 mg/kg day, cited from earlier work
[2] = molecular target: T1, proteasome (Homo sapiens, UniProt P28072+P28074+Q99436); test: In-Cell Fluorogenic Proteasome Assay, T98G; format: cell-based; parameters: endogenous in cells; host or cells: T98G (A10), digitonin/Tween-permeabilised whole cells; settings: whole T98G cell
T1 sequence (P28074 60-263): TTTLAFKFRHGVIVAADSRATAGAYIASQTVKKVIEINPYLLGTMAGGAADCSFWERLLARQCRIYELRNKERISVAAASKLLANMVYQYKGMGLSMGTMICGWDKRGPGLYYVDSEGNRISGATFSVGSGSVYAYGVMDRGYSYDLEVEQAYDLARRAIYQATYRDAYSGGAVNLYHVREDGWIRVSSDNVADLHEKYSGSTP
T1 sequence (Q99436 44-277): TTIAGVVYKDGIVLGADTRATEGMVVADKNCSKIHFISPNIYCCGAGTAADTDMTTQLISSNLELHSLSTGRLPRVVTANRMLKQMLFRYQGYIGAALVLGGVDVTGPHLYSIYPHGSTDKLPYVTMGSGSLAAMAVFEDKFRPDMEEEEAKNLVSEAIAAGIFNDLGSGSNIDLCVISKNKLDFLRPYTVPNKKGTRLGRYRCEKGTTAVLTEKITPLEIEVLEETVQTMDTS
T1 sequence (P28072 1-239): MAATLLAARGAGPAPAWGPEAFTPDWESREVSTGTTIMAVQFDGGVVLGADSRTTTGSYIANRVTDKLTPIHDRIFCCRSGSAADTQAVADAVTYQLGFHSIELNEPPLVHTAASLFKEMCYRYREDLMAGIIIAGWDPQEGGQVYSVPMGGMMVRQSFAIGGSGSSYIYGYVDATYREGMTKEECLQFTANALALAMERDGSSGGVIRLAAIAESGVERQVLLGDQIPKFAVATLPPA
Method: (§1) For a 96-well plate format, 8×10^3 cells per well were seeded. 24 hours later medium was changed with NMDAR blocker containing medium. Two hours later 100 μl of 2× flourescence cell buffer: (1 ml 1M tris hcl ph: 7.5, 500 μl 1M KCL, 200 μl […], 200 μl 0.1M MgCL2, 50 μl % 0.2 tween 20, 75 μl digitonin 20 mg/ml in DMSO ChemCruz cat no: sc-280675, 10 μl flourescence substrates including Suc-LLVY-AMC, Z-LLE-AMC, and Ac-RLR-AMC Ac-RLR-AMC, 8.1 ml H2O). After incubation at room temperature for a 5 minutes the flourescence of each sample were measured in a flourescence spectrometer (Biotek instrument-Synergy HT).

[3] = molecular target: T1, proteasome; test: In-Cell Fluorogenic Proteasome Assay, HepG2; format: cell-based; parameters: endogenous in cells; host or cells: HepG2 (A9), T98G (A10), digitonin/Tween-permeabilised whole cells; settings: for trypsin, chemotrypsin and caspase-like proteasome activities: whole HepG2 cell
Method: as §1

[4] = test system: p21-GFP fusion protein; test: p21-GFP fusion protein amount in cells; format: cell-based, human
[5] = test system: Ub-YFP; test: Ub-YFP degredation in Hep3B cells; format: cell-based, human
Method: This finding was supported by the following experiments; First, a model was developed to find inhibitor or inhibitors for the ubiquitin dependent degredation in the Hep3B cell line. For this purpose Hep3B cell expressing Ub-YFP genome were prepared. Ub-YFP is a system which was used to detect the ubiquitin dependent proteasome activity (26S). It is also known that Ub-YFP is not affected by the ubiquitin-independent protesome system. In further experiments, we tested molecules which are involved in different parts of the ubiquitination processes including PYR41 (Ubiquitin-activating enzyme (E1) inhibitor), NCC697923 (UBE2N E2 ubiquitin-conjugating enzyme inhibitor), SMER3 (ubiquitin ligase E3 inhibitor), SZL-P1-411 (Skp2 E3 ligase inhibitor), SKPIN C1 (Skp2 E3 ligase inhibitor), P005091 (USP7 inhibitor), Vialin A (USP4 and USP5 inhibitor), Spautin A (USP10 and USP13 inhibitor), ML 323 (USP1-UAF1 inhibitor), IU1 (USP14 inhibitor), and Mg132 (protesome inhibitor) for the inhibition of Ub-YFP degredation. […] MG132 was used as the inhibitor of the protesome activity (FIG. 12A). In the next experiment YFP protein amount was investigated in the presence of ketamin, Pyr41, and ketamin and Pyr41 together by western blot in Hep3B cell.
The Ub-R-YFP open-reading frame was obtained from Ub-R-YFP was a gift from Nico Dantuma (Addgene plasmid #11948). Ub-R-YFP sequence was obtained from the original vector by cutting the plasmid with NheI and NotI enzymes (Thermo Scientific), blunt ended and was cloned into pBSK-clo2D which is cut by EcoRV restriction enzyme (SibEnzyme, E059). Ub-R-YFP was obtained from the pBSK-clo2D vector by cutting with BamHI. pLV-EF1a-IRES-Puro (85132-Addgene) vector was cut by BamHI restriction enzyme and dephospharylated and ligated with Ub-R-YFP. After the orientation construct was determined, pLV-EF1a-IRES-Puro-Ub-R-YFP was reproduced in large volumes using DH5a E. Coli.
Hek293T cells were transfected with the pLV-EF1a-IRES-Puro-Ub-R-YFP and helper vectors psPAX2 and pMD2.G using Calcium Phosphate Mammalian Transfection Kit (631312-Takara bio). After 48 h supernatants containing Ub-R-YFP lentivirus were collected and target cells were infected under the presence of […] polybrene. After 24 hours, the media of the cells were replaced with media containing […] puromycin for 6 days. Then living cells were combined in a pool. Infected clones were maintained in the presence of 250 ng/ml puromycin.

C[C@]12N[C@H](Cc3ccccc31)c1ccccc12 [MK801, (5S,10R)-(+)-5-Methyl-10,11-dihydro-5H dibenzo [a,d]cyclobepten-5,10-imine maleate]
life span of mice with Gaucher disease symptoms [1]: dramatically extended | life span of mice with Gaucher disease symptoms ([1]; listed as MK-801): increase | trypsin, chemotrypsin and caspase-like proteasome activities [2]: increased | trypsin, chemotrypsin and caspase-like proteasome activities [3]: increased

CC(C)C[C@@H](C=O)NC(=O)[C@H](CC(C)C)NC(=O)[C@H](CC(C)C)NC(=O)OCc1ccccc1 [Mg132] (Cbz-Leu-Leu-Leu-aldehyde)
trypsin activity of proteasome ([3]; whole cell, HepG2, T98G and Hep3B): did not inhibit | chemotrypsin activity of proteasome ([3]; whole cell, substance alone): inhibits

CN1C(=O)[C@]23CC4=CC=C[C@H](O)[C@H]4N2C(=O)[C@@]1(CO)SS3 [Gliotoxin]
chemotrypsin activity of proteasome at low dose of Gliotoxin ([3]; 5 uM, compared to control): not statistically changed | chemotrypsin activity of proteasome at high dose of gliotoxin ([3]; 25 uM, in the presence of NMDR blockers): inhibited

Cc1cc(C(=O)CN2CCCC2)c(C)n1-c1ccc(F)cc1 [IU1]
trypsin, chemotrypsin and caspase-like proteasome activities [3]: increases

OO [H2O2]
GFP signal of p21-GFP [4]: increased the GFP signal dramatically

CCOC(=O)c1ccc(N2NC(=O)/C(=C/c3ccc([N+](=O)[O-])o3)C2=O)cc1 [PYR41]
Ub-YFP degredation ([5]; Hep3B expressing Ub-YFP): inhibits | YFP protein amount ([5]; Hep3B, western blot): increase | p21-GFP fusion protein / GFP amount [4]: increase
